Data: ChEMBL document CHEMBL3046893, “Antimicrobial screening of novel synthesized benzimidazole nucleus containing 4-oxo-thiazolidine derivatives” (2012)
Values after ≈ are worked out from the molar mass of the structure shown.

Columns and labels:
Assay type in all cases: functional
Aspergillus clavatus = test: Antifungal activity against Aspergillus clavatus MTCC 1323
Aspergillus niger = test: Antifungal activity against Aspergillus niger MTCC 282
Candida albicans = test: Antifungal activity against Candida albicans MTCC 227
Streptococcus pyogenes = test: Antibacterial activity against Streptococcus pyogenes MTCC 442 after 24 to 48 hr by serial broth dilution method
Staphylococcus aureus = test: Antibacterial activity against Staphylococcus aureus MTCC 96 after 24 to 48 hr by serial broth dilution method
Escherichia coli = test: Antibacterial activity against Escherichia coli MTCC 443 after 24 to 48 hr by serial broth dilution method
Pseudomonas aeruginosa = test: Antibacterial activity against Pseudomonas aeruginosa MTCC 1688 after 24 to 48 hr by serial broth dilution method

Compound	MIC (Aspergillus clavatus) [µg/mL]	MIC (Aspergillus niger) [µg/mL]	MIC (Candida albicans) [µg/mL]	MIC (Streptococcus pyogenes; read-out: MIC) [µg/mL]	MIC (Staphylococcus aureus) [µg/mL]	MIC (Escherichia coli) [µg/mL]	MIC (Pseudomonas aeruginosa) [µg/mL]	MIC (Streptococcus pyogenes) [µg/mL]
Cc1ccc2nc(-c3ccccc3N3C(=O)CSC3c3ccc(Cl)cc3)[nH]c2c1 (stereo unspecified)	1000 (≈ 2380 µM)	500 (≈ 1190 µM)	500 (≈ 1190 µM)	62.5 (≈ 149 µM)	100 (≈ 238 µM)	125 (≈ 298 µM)	250 (≈ 595 µM)	–
COC1=CC(=O)C[C@@H](C)[C@]12Oc1c(Cl)c(OC)cc(OC)c1C2=O [GRISEOFULVIN]	100 (≈ 283 µM)	100 (≈ 283 µM)	500 (≈ 1420 µM)	–	–	–	–	–
Cc1ccc2nc(-c3ccccc3N3C(=O)CSC3c3cccc(O)c3)[nH]c2c1 (stereo unspecified)	100 (≈ 249 µM)	1000 (≈ 2490 µM)	500 (≈ 1250 µM)	125 (≈ 311 µM)	250 (≈ 623 µM)	500 (≈ 1250 µM)	250 (≈ 623 µM)	–
Cc1ccc2nc(-c3ccccc3N3C(=O)CSC3c3ccccc3Cl)[nH]c2c1 (stereo unspecified)	1000 (≈ 2380 µM)	1000 (≈ 2380 µM)	1000 (≈ 2380 µM)	1000 (≈ 2380 µM)	500 (≈ 1190 µM)	1000 (≈ 2380 µM)	1000 (≈ 2380 µM)	–
Cc1ccc2nc(-c3ccccc3N3C(=O)CSC3c3ccc(O)cc3)[nH]c2c1 (stereo unspecified)	1000 (≈ 2490 µM)	1000 (≈ 2490 µM)	1000 (≈ 2490 µM)	500 (≈ 1250 µM)	500 (≈ 1250 µM)	125 (≈ 311 µM)	250 (≈ 623 µM)	–
COc1ccc(C2SCC(=O)N2c2ccccc2-c2nc3ccc(C)cc3[nH]2)cc1OC (stereo unspecified)	1000 (≈ 2240 µM)	1000 (≈ 2240 µM)	500 (≈ 1120 µM)	1000 (≈ 2240 µM)	100 (≈ 224 µM)	100 (≈ 224 µM)	250 (≈ 561 µM)	–
Cc1ccc2nc(-c3ccccc3N3C(=O)CSC3c3ccc([N+](=O)[O-])cc3[N+](=O)[O-])[nH]c2c1 (stereo unspecified)	1000 (≈ 2100 µM)	1000 (≈ 2100 µM)	1000 (≈ 2100 µM)	1000 (≈ 2100 µM)	62.5 (≈ 131 µM)	62.5 (≈ 131 µM)	250 (≈ 526 µM)	–
CC1(C)S[C@@H]2[C@H](NC(=O)[C@H](N)c3ccccc3)C(=O)N2[C@H]1C(=O)O [AMPICILLIN]	–	–	–	100 (≈ 286 µM)	250 (≈ 715 µM)	100 (≈ 286 µM)	100 (≈ 286 µM)	–
Cc1ccc2nc(-c3ccccc3N3C(=O)CSC3c3cccc([N+](=O)[O-])c3)[nH]c2c1 (stereo unspecified)	1000 (≈ 2320 µM)	100 (≈ 232 µM)	100 (≈ 232 µM)	62.5 (≈ 145 µM)	100 (≈ 232 µM)	25 (≈ 58.1 µM)	250 (≈ 581 µM)	–
Cc1ccc2nc(-c3ccccc3N3C(=O)CSC3c3ccc(Cl)cc3Cl)[nH]c2c1 (stereo unspecified)	500 (≈ 1100 µM)	500 (≈ 1100 µM)	250 (≈ 550 µM)	–	1000 (≈ 2200 µM)	62.5 (≈ 138 µM)	100 (≈ 220 µM)	500 (≈ 1100 µM)
Cc1ccc2nc(-c3ccccc3N3C(=O)CSC3c3ccc([N+](=O)[O-])cc3)[nH]c2c1 (stereo unspecified)	1000 (≈ 2320 µM)	1000 (≈ 2320 µM)	500 (≈ 1160 µM)	250 (≈ 581 µM)	250 (≈ 581 µM)	500 (≈ 1160 µM)	250 (≈ 581 µM)	–
Cc1ccc2nc(-c3ccccc3N3C(=O)CSC3c3ccccc3[N+](=O)[O-])[nH]c2c1 (stereo unspecified)	1000 (≈ 2320 µM)	1000 (≈ 2320 µM)	1000 (≈ 2320 µM)	250 (≈ 581 µM)	1000 (≈ 2320 µM)	500 (≈ 1160 µM)	250 (≈ 581 µM)	–
COc1cc(C2SCC(=O)N2c2ccccc2-c2nc3ccc(C)cc3[nH]2)cc(OC)c1OC (stereo unspecified)	1000 (≈ 2100 µM)	1000 (≈ 2100 µM)	500 (≈ 1050 µM)	250 (≈ 526 µM)	500 (≈ 1050 µM)	500 (≈ 1050 µM)	250 (≈ 526 µM)	–
Cc1ccc2nc(-c3ccccc3N3C(=O)CSC3c3ccc(F)cc3)[nH]c2c1 (stereo unspecified)	1000 (≈ 2480 µM)	500 (≈ 1240 µM)	500 (≈ 1240 µM)	250 (≈ 620 µM)	250 (≈ 620 µM)	250 (≈ 620 µM)	250 (≈ 620 µM)	–
